# Test results published in EP0409227A2, “Pyrimidine nucleosides, their preparation and pharmaceutical preparations” (MATTHES, Eckart, Dr., priority 1989, dated 1991).
# Where two headings read alike, the source gives them in different places.
# Columns and labels:
# [1] = target: T1, HBV-Polymerase (Hepatitis B virus genotype D subtype ayw, UniProt P03156); test: Inhibition of HBV polymerase activity by nucleoside triphosphate analogues (method of Kaplan et al.); format: biochemical
# T1 construct: Es wurde zunächst die Hemmbarkeit der HBV-assoziierten Polymerase; host or cells: virus-associated endogenous polymerase
# T1 sequence (P03156 whole entry): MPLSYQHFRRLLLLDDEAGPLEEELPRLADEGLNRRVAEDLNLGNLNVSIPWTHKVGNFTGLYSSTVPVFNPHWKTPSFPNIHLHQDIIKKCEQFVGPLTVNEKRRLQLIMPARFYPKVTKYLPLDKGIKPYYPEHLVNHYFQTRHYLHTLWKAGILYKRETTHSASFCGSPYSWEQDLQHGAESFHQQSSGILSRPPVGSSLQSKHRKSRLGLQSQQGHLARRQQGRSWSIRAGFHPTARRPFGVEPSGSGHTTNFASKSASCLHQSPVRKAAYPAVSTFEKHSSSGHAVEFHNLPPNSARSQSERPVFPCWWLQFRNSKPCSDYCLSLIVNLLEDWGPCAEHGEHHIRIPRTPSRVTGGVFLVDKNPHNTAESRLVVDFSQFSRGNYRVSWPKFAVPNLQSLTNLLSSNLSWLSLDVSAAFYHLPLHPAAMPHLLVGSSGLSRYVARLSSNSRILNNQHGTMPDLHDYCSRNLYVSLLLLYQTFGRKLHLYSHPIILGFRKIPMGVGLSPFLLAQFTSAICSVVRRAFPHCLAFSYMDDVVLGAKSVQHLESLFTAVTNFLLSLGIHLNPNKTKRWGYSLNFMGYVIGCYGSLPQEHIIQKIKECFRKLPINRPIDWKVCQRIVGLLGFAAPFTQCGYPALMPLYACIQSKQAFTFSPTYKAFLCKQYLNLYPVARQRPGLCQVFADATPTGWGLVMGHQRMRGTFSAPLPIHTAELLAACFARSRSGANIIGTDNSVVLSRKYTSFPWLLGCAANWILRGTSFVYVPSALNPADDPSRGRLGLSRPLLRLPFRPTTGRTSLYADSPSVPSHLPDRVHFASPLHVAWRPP
# Excerpt: Das Hepatitis B Virus (HBV) besitzt eine zirkuläre, partiell doppelsträngige DNA, welche nach Infektion einer Leberzelle durch eine viruseigene Polymerase repliziert wird. Dieser Vorgang setzt jedoch die Synthese einer RNA durch eine zelluläre RNA-Polymerase voraus. Nur diese RNA-Matrize - im Zusammenhang mit der Replikation auch als Prägenom bezeichnet - kann von der HBV-Polymerase für die Synthese zunächst eines RNA-DNA Hybrids und dann der doppelsträngigen DNA benutzt werden. Damit verfügt die HBV-Polymerase über eine enzymatische Aktivität, die der einer reversen Transcriptase ähnelt (Will et al., J.Virology 61, 904 (1987)). Es wurde zunächst die Hemmbarkeit der HBV-assoziierten Polymerase durch die 5′-Triphosphate der erfindungsgemäßen Verbindungen untersucht. Dazu wurde die von Kaplan et al. (J.Virology 12, 995 (1973)) angegebene Methode zur Bestimmung der HBV-Polymerase benutzt, wobei die zu testenden Triphosphate den Ansätzen in verschiedenen Konzentrationen zugesetzt wurden. Die Hemmung der Enzymreaktion wurde nach 3-stündiger Inkubation bei 37 °C durch Vergleich mit einem Kontrollwert ermittelt und daraus die Konzentration der zugesetzten Analoga bestimmt, die zu einer 50 %igen Hemmung der HBV-Polymerase-Aktivität führt (ID₅₀). Tabelle 1 zeigt die Ergebnisse, wobei insbesondere 2′,3′-Didesoxy-3′-fluor-5-methylcytidin durch einen Wert ID₅₀ von 0,03 µM herausragt und damit zu den stärksten bisher bekannten Hemmstoffen der HBV-Polymerase zu rechnen ist. Tabelle 1
# [2] = tested on: Hep G2 (2.2.15)-Zellen; test: DNA synthesis of Hep G2 (2.2.15) cells (acid-insoluble radioactivity after 3H-thymidine or 3H-deoxyadenosine); format: cell-based, menschlichen; details: 4 days, then 24 h label, mean ± SD of five experiments
# Description: (§1) Die Testung der antiviralen Wirksamkeit der Nucleoside auf zelluärer Ebene erfolgte an einer menschlichen Hepatoblastom-Zellinie, die mit dem HBV-Genom tranfiziert wurde und sowohl das Oberflächenantigen des Virus (HBsAg) als auch die HBV-DNA permanent produziert und infektiöse Viruspartikel in das Medium abgibt (Hep G2-Zellen, Klon 2.2.15, Sells et al. Proc.Natl.Acad. Sci. 84, 1005 (1987)). Die Zellen (5x10⁵/ml) wurden in RPMI 1640-Medium mit 2 mM Glutamin und 10% fetalem Kälberserum allein oder zusammen mit den Nucleosid-Analoga für 4 Tage inkubiert, danach wurden den Ansätzen für 24 Stunden ³H-Thymidin bzw. ³H-Desoxyadenosin (3 µCi/ml) zugesetzt, die Zellen abzentrifugiert und darin die säureunlösliche Radioaktivität und damit der Einfluß auf die DNA-Synthese bestimmt. Im Inkubationsmedium wurde das HBsAg durch Festphasenradioimmunoassay (Travenol-Genentech Diagnostics, Cambridge, MA) entsprechend den Instruktionen des Herstellers ermittelt. Die Tabelle 4 faßt die Ergebnisse zusammen, die belegen, daß die getesteten Verbindungen hochwirksame und selektive Hemmstoffe der HBV-Vermehrung sind.
# [3] = tested on: HBsAg-Sekretion von Hep G2 (2.2.15)-Zellen; test: Inhibition of HBsAg secretion of Hep G2 (2.2.15) cells (solid-phase radioimmunoassay of the medium); format: cell-based, HBV
# Description: as §1
# [4] = nucleoside 0,01 µM, 4 days + 24 h, mean ± SD of five experiments
# [5] = nucleoside 0,1 µM, 4 days + 24 h, mean ± SD of five experiments
# [6] = nucleoside 0,01 µM, % of control without nucleoside (100)
# [7] = nucleoside 0,1 µM, % of control without nucleoside (100)
# [8] = nucleoside 0,03 µM, 4 days + 24 h, mean ± SD of five experiments
# [9] = nucleoside 0,3 µM, 4 days + 24 h, mean ± SD of five experiments
# [10] = nucleoside 0,03 µM, % of control without nucleoside (100)
# [11] = nucleoside 0,3 µM, % of control without nucleoside (100)
# [12] = nucleoside 0,003 µM, 4 days + 24 h, mean ± SD of five experiments
# [13] = nucleoside 0,003 µM, % of control without nucleoside (100)
# [14] = nucleoside 1,0 µM, 4 days + 24 h, mean ± SD of five experiments
# [15] = nucleoside 1,0 µM, % of control without nucleoside (100)
# [16] = nucleoside 3,0 µM, 4 days + 24 h, mean ± SD of five experiments
# [17] = nucleoside 3,0 µM, % of control without nucleoside (100)
Compound,"^3H-DNA ([2]; nucleoside 0,01 µM) [dpm/Kultur]","^3H-DNA ([2]; nucleoside 0,1 µM) [dpm/Kultur]","^3H-DNA ([2]; nucleoside 0,03 µM) [dpm/Kultur]","^3H-DNA ([2]; nucleoside 0,3 µM) [dpm/Kultur]","^3H-DNA ([2]; nucleoside 0,003 µM) [dpm/Kultur]","^3H-DNA ([2]; nucleoside 1,0 µM) [dpm/Kultur]","^3H-DNA ([2]; nucleoside 3,0 µM) [dpm/Kultur]","HBsAg [3, 4]","HBsAg [3, 5]","HBsAg [3, 6] [%]","HBsAg [3, 7] [%]","HBsAg [3, 8]","HBsAg [3, 9]","HBsAg [3, 10] [%]","HBsAg [3, 11] [%]","HBsAg [3, 12]","HBsAg [3, 13] [%]","HBsAg [3, 14]","HBsAg [3, 15] [%]","HBsAg [3, 16]",other results
"Nc1nc2c(ncn2[C@H]2C[C@H](F)[C@@H](COP(=O)(O)OP(=O)(O)OP(=O)(O)O)O2)c(=S)[nH]1 [2′,3′-Didesoxy-3′-fluor-6-thioguanosin-5′-triphosphat]",–,–,–,–,–,–,–,–,–,–,–,–,–,–,–,–,–,–,–,–,IC50 [1]: 500 nM
"Nc1nc2c(ncn2[C@H]2C[C@H](N)[C@@H](COP(=O)(O)OP(=O)(O)OP(=O)(O)O)O2)c(=O)[nH]1 [2′,3′-Didesoxy-3′-aminoguanosin-5′-triphosphat]",–,–,–,–,–,–,–,–,–,–,–,–,–,–,–,–,–,–,–,–,"IC50 ([1]; 50 % inhibition of HBV polymerase activity, 3 h incubation at 37 °C, read-out: ID₅₀): 4000 nM"
"Nc1ccn([C@H]2C=C[C@@H](CO)O2)c(=O)n1 [2',3'-Didehydro-2',3'-didesoxycytidin]",18410 ± 1895,19930 ± 1830,15685 ± 1740,14270 ± 1655,17940 ± 1865,12350 ± 1310,6535 ± 790,"12,1 ± 1,6 ng/ml","0,8 ± 0,2 ng/ml",69,5,"5,8 ± 1,2 ng/ml","0,4 ± 0,2 ng/ml",33,2,"18,7 ± 2,8 ng/ml",107,"< 0,1 ng/ml",< 1,"< 0,1 ng/ml","HBsAg [3, 17]: < 1%"
"Cc1cn([C@@H]2O[C@H](CO)[C@@H](O)[C@@H]2O)c(=O)nc1N [Arabinosyl-5-methyl-cytosin, 1-β-D-Arabinofuranosyl-5-methylcytosin]",17990 ± 1635,16225 ± 1825,19075 ± 1905,18600 ± 1865,17755 ± 1750,12415 ± 1070,8470 ± 935,"12,4 ± 1,2 ng/ml","3,6 ± 0,5 ng/ml",71,21,"10,3 ± 1,2 ng/ml","0,6 ± 0,3 ng/ml",59,3,"16,8 ± 1,7 ng/ml",96,"< 0,1 ng/ml",< 1,"< 0,1 ng/ml","HBsAg [3, 17]: < 1%"
"Nc1nc(N)c2ncn([C@H]3C[C@H](F)[C@@H](CO)O3)c2n1 [2',3'-Didesoxy-3'-fluor-2,6-diaminopurinribosid]",16820 ± 1775,19990 ± 1820,17265 ± 1895,15125 ± 1795,19535 ± 1835,18885 ± 1950,17740 ± 1670,"3,2 ± 0,6 ng/ml","< 0,1 ng/ml",18,< 1,"2,0 ± 0,5 ng/ml","< 0,1 ng/ml",11,< 1,"15,9 ± 2,7 ng/ml",91,"< 0,1 ng/ml",< 1,"< 0,1 ng/ml","HBsAg [3, 17]: < 1%"
"CCc1cn([C@H]2C[C@H](F)[C@@H](CO)O2)c(=O)nc1N [2',3'-Didesoxy-3'-fluor-5-ethylcytidin]",13855 ± 1945,15245 ± 1655,14570 ± 1695,14130 ± 1940,14020 ± 1780,9850 ± 1230,6640 ± 965,"8,2 ± 0,8 ng/ml","0,6 ± 0,1 ng/ml",42,3,"2,6 ± 0,6 ng/ml","< 0,1 ng/ml",13,< 1,"16,7 ± 2,6 ng/ml",87,"< 0,1 ng/ml",< 1,"< 0,1 ng/ml","HBsAg [3, 17]: < 1%"
"Nc1ncc2ncn([C@H]3C[C@H](F)[C@@H](COP(=O)(O)OP(=O)(O)OP(=O)(O)O)O3)c2n1 [2′,3′-Didesoxy-3′-fluor-2-aminopurinribosid-5′-triphosphat]",–,–,–,–,–,–,–,–,–,–,–,–,–,–,–,–,–,–,–,–,IC50 [1]: 600 nM
